Measurements reported in patent publication US11059842B2, “Monosaccharide amine and 3-nitro-2-phenyl-2H-chromene based inhibitors of glucose kinases” (UNIVERSITY OF SOUTH CAROLINA, priority 2019, dated 2021).
“And” between values parts separate entries of the source, which are not always exact repeats. Identical values can stand only once. Like-named read-outs stand apart in the source and are kept apart here.

Legend:
[1] = target: Homo sapiens hexokinase IV (HsHxKIV) (Homo sapiens (Human), UniProt P35557); assay: HsHxKIV enzyme-inhibition screening assay (Example 1); assay type: biochemical; details: 20 μM compound; N = 1
Homo sapiens hexokinase IV (HsHxKIV), sequence (P35557 whole entry): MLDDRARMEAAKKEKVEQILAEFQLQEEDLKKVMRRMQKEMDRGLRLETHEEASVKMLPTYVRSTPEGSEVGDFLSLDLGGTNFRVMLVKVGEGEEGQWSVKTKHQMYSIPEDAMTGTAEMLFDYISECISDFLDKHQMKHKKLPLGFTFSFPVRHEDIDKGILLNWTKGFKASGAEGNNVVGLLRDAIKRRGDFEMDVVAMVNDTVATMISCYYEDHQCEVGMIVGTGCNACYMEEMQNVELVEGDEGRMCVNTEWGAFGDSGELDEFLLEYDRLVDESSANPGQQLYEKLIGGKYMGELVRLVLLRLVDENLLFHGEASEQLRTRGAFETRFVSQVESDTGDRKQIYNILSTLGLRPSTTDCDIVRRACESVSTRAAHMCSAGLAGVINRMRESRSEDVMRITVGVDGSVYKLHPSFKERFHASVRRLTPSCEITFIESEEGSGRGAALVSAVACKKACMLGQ
Description: (§1) D-Glucose was also tested as a control with alternative substrates. The protein expression work for TcGlcK and HsHxKIV were each made possible through the E. coli strain BL21(DE3) system. Purification of each enzyme was performed through cobalt-NTA chromatography followed by size-exclusion chromatography; assessment of purity was performed by SDS-PAGE. In enzymatic assays, a time-optimum (TOPT) was determined to be 120 seconds for TcGlcK and 600 seconds for HsHxKIV; all assays were run at room temperature. A general reaction scheme included a first reaction in which the monosaccharide, ATP, and Mg^2+ react with the enzyme, e.g., TcGlcK, forming a hexose-phosphate and ADP. In a second reaction, hexose-phosphate with the assistance of glucose-6-phosphate dehydrogenase (G6PDH) and NADP^+ was converted to the lactone form of the hexose-phosphate and NADPH. Fluorescence of NADPH was monitored using a fluorescence microplate reader with […] wavelengths of 340 nm and 485 nm, respectively.
(§2) FIG. 4 and FIG. 5 present typical Michaelis-Menten enzyme kinetic plots for D-glucose. As shown, the NADP^+ to NADPH turnover rate is a function of [D-glucose] & [ATP] for TcGlcK (FIG. 4) and HsHxKIV (FIG. 5) absent inhibition. Michaelis-Menten constant (KM) values, which were used as the set final assay concentrations of substrates D-glucose and ATP for the primary screens, were determined for both TcGlcK and HsHxKIV in triplicate runs. The KM values for TcGlcK with respect to D-glucose and ATP were 0.40 mM and 0.34 mM, respectively. The KM values for HsHxKIV with respect to D-glucose and ATP were 43 mM and 0.20 mM, respectively.

TcGlcK [2] = target: T1, TcGlcK (Trypanosoma cruzi (strain CL Brener), UniProt Q4E4E1); assay type: biochemical
T1 sequence (Q4E4E1 1-376): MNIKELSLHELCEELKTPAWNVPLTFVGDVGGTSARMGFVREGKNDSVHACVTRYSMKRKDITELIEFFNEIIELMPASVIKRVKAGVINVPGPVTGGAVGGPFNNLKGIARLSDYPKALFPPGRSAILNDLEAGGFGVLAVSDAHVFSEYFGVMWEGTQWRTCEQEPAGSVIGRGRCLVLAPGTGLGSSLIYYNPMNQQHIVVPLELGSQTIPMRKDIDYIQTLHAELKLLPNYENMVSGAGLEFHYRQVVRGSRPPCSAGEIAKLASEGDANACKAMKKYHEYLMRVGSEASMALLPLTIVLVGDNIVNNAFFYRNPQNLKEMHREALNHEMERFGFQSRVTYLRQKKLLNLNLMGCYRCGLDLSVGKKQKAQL
Description: as §1, with “In enzymatic assays, a time-optimum (TOPT) was determined to be 120 seconds for TcGlcK and 600 seconds for HsHxKIV; all assays were run at room temperature.” left out

[3] = target: Trypanosoma cruzi glucokinase (TcGlcK) (Trypanosoma cruzi (strain CL Brener), UniProt Q4E4E1); assay type: biochemical; details: for TcGlcK Inh20 (%): percentage of inhibition at 20 μM of the compound, N = 1
Trypanosoma cruzi glucokinase (TcGlcK), sequence (Q4E4E1 1-376): as above
Description: as §1, with “In enzymatic assays, a time-optimum (TOPT) was determined to be 120 seconds for TcGlcK and 600 seconds for HsHxKIV; all assays were run at room temperature.” left out
(§3) Michaelis-Menten constant (KM) values, which were used as the set final assay concentrations of substrates D-glucose and ATP for the primary screens, were determined for both TcGlcK and HsHxKIV in triplicate runs. […]
The cutoff percentage was calculated by using normalized percent inhibition that took into consideration the positive and negative controls of the fluorescence readout from a fluorescence microplate reader. In addition, an unconfirmed hit was selected if the activity measurement was three standard deviations away from the mean of the positive controls.

[4] = system: glucose-6-phosphate dehydrogenase (G6PDH); assay: G6PDH confirmatory assay (coupling enzyme counter-screen); assay type: biochemical; details: 20 μM compound; quadruplicate
Description: The 16 compounds showing substantial inhibition against TcGlcK at compound concentrations of 20 μM were then examined in a confirmatory assay in which the amino sugar analogues were at a concentration of 20 μM and were tested against the assay's only coupling enzyme, G6PDH, to verify enzyme activity; the assay was performed in quadruplicate. […] These confirmed hits included representatives from all three monosaccharide scaffolds tested (i.e., D-GlcN, D-ManN, and D-GalN).

[5] = system: T. cruzi (Tulahuen strain) infective form (trypomastigote and amastigote life stages) co-cultured in NIH-3T3 fibroblasts; assay: T. cruzi infective form growth inhibition in NIH-3T3 fibroblasts; assay type: cell-based, Trypanosoma cruzi; details: Tulahuen strain infective form in NIH-3T3 fibroblasts; N = 3 (Amphotericin B control: 6 replicates)
Description: The curve and the IC50 were calculated from measurements determined in triplicate and expressed as percent growth inhibition of the T. cruzi parasite infection of mammalian cells.
Compounds were further screened against the T. cruzi (Tulahuen strain) infective form (trypomastigote and amastigote life stages) co-cultured in NIH-3T3 fibroblasts to establish IC50 values. Assays were performed in triplicate.
The single dose in vitro study included administration of the compounds in 80 μM inhibitor concentrations (N=3). Amphotericin B was used as a control.

TcGlcK [6] = target: T1, TcGlcK; assay: Primary assay screen of TcGlcK, normalized percent inhibition (Example 2); assay type: biochemical; details: triplicate
Description: (§4) Primary assay screens of TcGlcK, LbGlcK, and HsHxKIV against the 3-nitro-2-phenyl-2H-chromene-based inhibitors compound nos. 19-22 were carried out. Compound 1, Benzoyl glucosamine (BENZ-GlcN or simply “BENZ”) and carboxybenzyl glucosamine (CBZ-GlcN or simply “CBZ”) were both used as controls due to their known inhibition against TcGlcK. LbGlcK was chosen to be tested against these compounds due to its 44% protein sequence similarity to TcGlcK.
(§5) All screens were done in triplicate and were analyzed using normalized percent inhibition (NPI) calculations. NPI calculations rely on positive and negative assay controls within the screen to account for any fluctuations in the fluorescence measurements.
(§6) The NPI for a compound to be considered a “hit” against TcGlcK required a value exceeding 60.5% inhibition in the primary screen. All four compounds ([…]) qualified as hits based off of this parameter. LbGlcK required compounds to be above 12.6% inhibition in its primary screen; all four compounds were also qualified as hits.

HsHxKIV [7] = target: T2, HsHxKIV (Homo sapiens (Human), UniProt P35557); assay: Primary assay screen of HsHxKIV, normalized percent inhibition (Example 2); assay type: biochemical; details: triplicate
T2 sequence (P35557 whole entry): as the sequence (P35557 whole entry) above
Description: as §4, §5, §6

T. brucei = T. brucei in vitro screen; assay type: cell-based; details: Trypanosoma brucei; average; concentrations up to 10 μM, N=3
Description: Compounds 19-31 were screened against T. brucei. The single dose in vitro study included administration of the compounds in increasing concentrations up to 10 μM (N=3 for each compound concentration value). Media and T. bricei+0.5% SDS were used as control.

[8] = system: T. cruzi (Tulahuen strain) infective form (trypomastigote and amastigote life stages) co-cultured in NIH-3T3 fibroblasts; details: literature / previously measured values; infective form in NIH-3T3 fibroblasts; cited from earlier work
[9] = system: Leishmania braziliensis glucokinase (LbGlcK); assay: Primary assay screen of LbGlcK, normalized percent inhibition (Example 2); assay type: biochemical; details: triplicate
Description: as §4, §5, §6

TcGlcK [10] = target: T1, TcGlcK; details: from D'Antonio, et al (2015); cited from earlier work
HsHxKIV [11] = target: T2, HsHxKIV; assay: HsHxKIV Michaelis-Menten kinetics; assay type: biochemical; details: substrate; triplicate runs
Description: as §1
as §3, with “FIG. 4 and FIG. 5 present typical Michaelis-Menten enzyme kinetic plots for D-glucose. […] Michaelis-Menten” for “Michaelis-Menten”

TcGlcK [12] = target: T1, TcGlcK; assay: TcGlcK Michaelis-Menten kinetics and substrate range; assay type: biochemical; details: substrate; triplicate runs
Description: as §1, §2
All phosphorylated hexoses were shown getting converted into their corresponding products by G6PDH, in abundant quantities through a 30-second time frame. This permitted the standard TcGlcK […] assay, which was timed for […], to be used as an assay to analyze alternative substrates.

For O=C(N[C@H]1C(O)O[C@H](CO)[C@@H](O)[C@@H]1O)c1cc2ccccc2o1 (some centres unmarked) [Compound 5], the “HsHxKIV Inh20(%)” value [1] was 25%, the “mode of TcGlcK inhibition” value (TcGlcK [2]) was “competitive inhibition” and the Ki (TcGlcK [2]; N = 3) was 139 ± 35 µM. The “TcGlcK Inh20 (%)” value [3] was 31% and 31.2%, the “G6PDH Inh20 (%)” value [4] was 0.0 ± 0.0% and the IC50 [5] was 27.2 µM.
With O=[N+]([O-])C1=Cc2cc(Br)ccc2O[C@H]1c1ccccc1Cl [Compound 20] the “NPI (%) TcGlcK” value (TcGlcK [6]) was 89.5%, the “NPI (%) HsHxKIV” value (HsHxKIV [7]) was 64.7% and the IC50 (T. brucei) was 0.862 µM.
For O=C(Cn1ccnc1[N+](=O)[O-])NCc1ccccc1 [benznidazole], the IC50 [8] is given as 1.12 ± 0.01 µM.
For O=C(NC1C(O)OC(CO)C(O)C1O)OCc1ccccc1 (centres unmarked) [CBZ-GlcN, carboxybenzyl glucosamine, reference compound], the “NPI (%) TcGlcK” value (TcGlcK [6]) was 100%, the “TcGlcK Inh20 (%)” value [3] was 92% and the “NPI (%) HsHxKIV” value (HsHxKIV [7]) was 15.0%.
For O=[N+]([O-])C1=Cc2cc(Br)cc(Br)c2O[C@H]1c1c(Cl)cccc1Cl [Compound 19], the “NPI (%) TcGlcK” value (TcGlcK [6]) was 62.3%, the “NPI (%) HsHxKIV” value (HsHxKIV [7]) was 82.1% and the IC50 (T. brucei) was 0.902 µM.
For O=C(N[C@H]1C(O)O[C@H](CO)[C@@H](O)[C@@H]1O)c1ccccc1 (some centres unmarked) [Compound 1, Benzoyl glucosamine], the “HsHxKIV Inh20(%)” value [1] was 39%, the “NPI (%) LbGlcK” value [9] was 27.2% and the “NPI (%) TcGlcK” value (TcGlcK [6]) was 100%. For the same molecule, the “Ki stronger than compound 5 by magnitude” value (TcGlcK [2]; relative to compound 5) was 4.3 fold, the Ki (TcGlcK [10]) was 32 µM and the “TcGlcK Inh20:HsHxKIV Inh20 ratio” value ([3]; higher values indicate more selective towards TcGlcK) was 1.65. For the same molecule, the “TcGlcK Inh20 (%)” value [3] was 65% and 64.7%, the “NPI (%) HsHxKIV” value (HsHxKIV [7]) was 9.30% and the “G6PDH Inh20 (%)” value [4] was 0.5 ± 1.0%.
Work on Nc1ncnc2c1ncn2[C@@H]1O[C@H](COP(=O)(O)OP(=O)(O)OP(=O)(O)O)[C@@H](O)[C@H]1O [ATP] yielded a Km (HsHxKIV [11]) of 200 µM and a Km (TcGlcK [12]) of 340 µM.
With O=[N+]([O-])C1=Cc2ccccc2O[C@H]1c1ccccc1Cl [Compound 21] the “NPI (%) TcGlcK” value (TcGlcK [6]) was 54.7% and the “NPI (%) HsHxKIV” value (HsHxKIV [7]) was 51.8%.
